According to PubChem BioAssay AID2060899 (Molecular Pharmacology Branch, DTP, NCI, 2025):

Tested on: 565726-208-R1-J5-PDC complex spheroids, growth inhibition
Test: Anticancer human tumor 565726-208-R1-J5-PDC patient-derived pancreatic adenocarcinoma cell line growth inhibition [RAS]
Conditions: for IC50: curve of first compound; for viability, T/C: stronger effect = lower value
Outline: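 Multi-cell-type spheroids: tumor cells plus HUVEC endothelial cells and mesenchymal stem cells. RAS-pathway inhibitors were combined with targeted agents, each dosed in half-log steps down from clinical Cmax, or from 10 microM when Cmax was unknown.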

[1] = second compound 0.0316 µM, first compound 0.0316 µM
[2] = second compound 0.0316 µM, first compound 0.1 µM
[3] = second compound 0.1 µM, first compound 0.0316 µM
[4] = second compound 0.1 µM, first compound 0.1 µM
[5] = second compound 0.316 µM, first compound 0.0316 µM
[6] = second compound 0.316 µM, first compound 0.1 µM
[7] = second compound 1 µM, first compound 0.0316 µM
[8] = second compound 1 µM, first compound 0.1 µM
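Further: spheroids exposed to compounds for seven days before readout.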
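Wherever viability, T/C is given: 100% = DMSO vehicle control viability.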

Compound: CC(Nc1ccc2c(c1)OCCn1cc(N3C(=O)OCC3C(F)F)nc1-2)C(N)=O (stereo unspecified) + C#Cc1c(F)ccc2cc(O)cc(-c3ncc4c(N5CC6CCC(C5)N6)nc(OCC56CCCN5CC(F)C6)nc4c3F)c12
- IC50 (second compound 0.0316 µM): > 10000 nM
- IC50 (second compound 0.1 µM): > 10000 nM
- IC50 (second compound 0.316 µM): > 10000 nM
- IC50 (second compound 1 µM): > 10000 nM
- IC50 (second compound 3.16 µM): 487 nM
- IC50 (second compound 10 µM): 527 nM
- viability, T/C [1]: 73.2%
- viability, T/C [2]: 101%
- viability, T/C (second compound 0.0316 µM, first compound 0.316 µM): 86.5%
- viability, T/C (second compound 0.0316 µM, first compound 1 µM): 60.4%
- viability, T/C (second compound 0.0316 µM, first compound 3.16 µM): 92.9%
- viability, T/C (second compound 0.0316 µM, first compound 10 µM): 70.2%
- viability, T/C [3]: 87.5%
- viability, T/C [4]: 102%
- viability, T/C (second compound 0.1 µM, first compound 0.316 µM): 73.9%
- viability, T/C (second compound 0.1 µM, first compound 1 µM): 53.5%
- viability, T/C (second compound 0.1 µM, first compound 3.16 µM): 81.2%
- viability, T/C (second compound 0.1 µM, first compound 10 µM): 65.5%
- viability, T/C [5]: 105%
- viability, T/C [6]: 109%
- viability, T/C (second compound 0.316 µM, first compound 0.316 µM): 72.9%
- viability, T/C (second compound 0.316 µM, first compound 1 µM): 55.1%
- viability, T/C (second compound 0.316 µM, first compound 3.16 µM): 69.2%
- viability, T/C (second compound 0.316 µM, first compound 10 µM): 62.5%
- viability, T/C [7]: 114%
- viability, T/C [8]: 102%
- viability, T/C (second compound 1 µM, first compound 0.316 µM): 57.2%
- viability, T/C (second compound 1 µM, first compound 1 µM): 60.2%
- viability, T/C (second compound 1 µM, first compound 3.16 µM): 47.4%
- viability, T/C (second compound 1 µM, first compound 10 µM): 54.6%
- viability, T/C (second compound 3.16 µM, first compound 0.0316 µM): 90.5%
- viability, T/C (second compound 3.16 µM, first compound 0.1 µM): 80%
- viability, T/C (second compound 3.16 µM, first compound 0.316 µM): 56.4%
- viability, T/C (second compound 3.16 µM, first compound 1 µM): 38.7%
- viability, T/C (second compound 3.16 µM, first compound 3.16 µM): 35.6%
- viability, T/C (second compound 3.16 µM, first compound 10 µM): 45.3%
- viability, T/C (second compound 10 µM, first compound 0.0316 µM): 60.8%
- viability, T/C (second compound 10 µM, first compound 0.1 µM): 68.9%
- viability, T/C (second compound 10 µM, first compound 0.316 µM): 51.1%
- viability, T/C (second compound 10 µM, first compound 1 µM): 46.7%
- viability, T/C (second compound 10 µM, first compound 3.16 µM): 30.7%
- viability, T/C (second compound 10 µM, first compound 10 µM): 34.7%

Compound: Nc1ccn(C2OC(CO)C(O)C2(F)F)c(=O)n1 (stereo unspecified) + CCn1c(-c2cccnc2C(C)OC)c2c3cc(ccc31)N1CCOC(CC(NC(=O)C(C(C)C)N(C)C(=O)C3(F)CCN(C(=O)C#CC(C)(C)N(C)C)CC3)C(=O)N3CCCC(N3)C(=O)OCC(C)(C)C2)C1
- IC50 (second compound 0.000949 µM): 82.4 nM
- IC50 (second compound 0.003 µM): 77.2 nM
- IC50 (second compound 0.00949 µM): 72.3 nM
- IC50 (second compound 0.03 µM): 70.4 nM
- IC50 (second compound 0.0949 µM): 77.2 nM
- IC50 (second compound 0.3 µM): 44 nM
- viability, T/C (second compound 0.000949 µM, first compound 0.00316 µM): 107%
- viability, T/C (second compound 0.000949 µM, first compound 0.01 µM): 91.8%
- viability, T/C (second compound 0.000949 µM, first compound 0.0316 µM): 68.1%
- viability, T/C (second compound 0.000949 µM, first compound 0.1 µM): 47%
- viability, T/C (second compound 0.000949 µM, first compound 0.316 µM): 32.3%
- viability, T/C (second compound 0.000949 µM, first compound 1 µM): 27.9%
- viability, T/C (second compound 0.003 µM, first compound 0.00316 µM): 110%
- viability, T/C (second compound 0.003 µM, first compound 0.01 µM): 88.6%
- viability, T/C (second compound 0.003 µM, first compound 0.0316 µM): 69.2%
- viability, T/C (second compound 0.003 µM, first compound 0.1 µM): 40.9%
- viability, T/C (second compound 0.003 µM, first compound 0.316 µM): 38.6%
- viability, T/C (second compound 0.003 µM, first compound 1 µM): 29.6%
- viability, T/C (second compound 0.00949 µM, first compound 0.00316 µM): 97.5%
- viability, T/C (second compound 0.00949 µM, first compound 0.01 µM): 91.2%
- viability, T/C (second compound 0.00949 µM, first compound 0.0316 µM): 66%
- viability, T/C (second compound 0.00949 µM, first compound 0.1 µM): 42.5%
- viability, T/C (second compound 0.00949 µM, first compound 0.316 µM): 36.1%
- viability, T/C (second compound 0.00949 µM, first compound 1 µM): 26.2%
- viability, T/C (second compound 0.03 µM, first compound 0.00316 µM): 90.1%
- viability, T/C (second compound 0.03 µM, first compound 0.01 µM): 90.2%
- viability, T/C (second compound 0.03 µM, first compound 0.0316 µM): 62.7%
- viability, T/C (second compound 0.03 µM, first compound 0.1 µM): 43.3%
- viability, T/C (second compound 0.03 µM, first compound 0.316 µM): 33.6%
- viability, T/C (second compound 0.03 µM, first compound 1 µM): 22.8%
- viability, T/C (second compound 0.0949 µM, first compound 0.00316 µM): 85.1%
- viability, T/C (second compound 0.0949 µM, first compound 0.01 µM): 88.4%
- viability, T/C (second compound 0.0949 µM, first compound 0.0316 µM): 71.9%
- viability, T/C (second compound 0.0949 µM, first compound 0.1 µM): 43%
- viability, T/C (second compound 0.0949 µM, first compound 0.316 µM): 31.4%
- viability, T/C (second compound 0.0949 µM, first compound 1 µM): 24.4%
- viability, T/C (second compound 0.3 µM, first compound 0.00316 µM): 81.8%
- viability, T/C (second compound 0.3 µM, first compound 0.01 µM): 75.4%
- viability, T/C (second compound 0.3 µM, first compound 0.0316 µM): 52.6%
- viability, T/C (second compound 0.3 µM, first compound 0.1 µM): 37.6%
- viability, T/C (second compound 0.3 µM, first compound 0.316 µM): 30.8%
- viability, T/C (second compound 0.3 µM, first compound 1 µM): 21.2%

Compound: CC(C)n1nc(-c2ccc3oc(N)nc3c2)c2c(N)ncnc21 + C=CC(=O)N1CCN(c2nc(OCC3CCCN3C)nc3c(F)c(-c4nc(N)cc(C)c4C(F)(F)F)c(Cl)cc23)C(C)C1
- IC50 (second compound 0.00316 µM): 100 nM
- IC50 (second compound 0.01 µM): 25.2 nM
- IC50 (second compound 0.0316 µM): 44.9 nM
- IC50 (second compound 0.1 µM): 59.1 nM
- IC50 (second compound 0.316 µM): 100 nM
- IC50 (second compound 1 µM): 80.9 nM
- viability, T/C (second compound 0.00316 µM, first compound 0.000316 µM): 93%
- viability, T/C (second compound 0.00316 µM, first compound 0.001 µM): 138%
- viability, T/C (second compound 0.00316 µM, first compound 0.00316 µM): 70.2%
- viability, T/C (second compound 0.00316 µM, first compound 0.01 µM): 62.3%
- viability, T/C (second compound 0.00316 µM, first compound 0.0316 µM): 57.1%
- viability, T/C (second compound 0.00316 µM, first compound 0.1 µM): 42%
- viability, T/C (second compound 0.01 µM, first compound 0.000316 µM): 93.5%
- viability, T/C (second compound 0.01 µM, first compound 0.001 µM): 132%
- viability, T/C (second compound 0.01 µM, first compound 0.00316 µM): 96.7%
- viability, T/C (second compound 0.01 µM, first compound 0.01 µM): 68.2%
- viability, T/C (second compound 0.01 µM, first compound 0.0316 µM): 48.2%
- viability, T/C (second compound 0.01 µM, first compound 0.1 µM): 39.5%
- viability, T/C (second compound 0.0316 µM, first compound 0.000316 µM): 99.8%
- viability, T/C (second compound 0.0316 µM, first compound 0.001 µM): 148%
- viability, T/C (second compound 0.0316 µM, first compound 0.00316 µM): 81.7%
- viability, T/C (second compound 0.0316 µM, first compound 0.01 µM): 78.3%
- viability, T/C [1]: 55.5%
- viability, T/C [2]: 41.1%
- viability, T/C (second compound 0.1 µM, first compound 0.000316 µM): 107%
- viability, T/C (second compound 0.1 µM, first compound 0.001 µM): 121%
- viability, T/C (second compound 0.1 µM, first compound 0.00316 µM): 86.5%
- viability, T/C (second compound 0.1 µM, first compound 0.01 µM): 70.8%
- viability, T/C [3]: 65.7%
- viability, T/C [4]: 40.3%
- viability, T/C (second compound 0.316 µM, first compound 0.000316 µM): 87.1%
- viability, T/C (second compound 0.316 µM, first compound 0.001 µM): 126%
- viability, T/C (second compound 0.316 µM, first compound 0.00316 µM): 70.7%
- viability, T/C (second compound 0.316 µM, first compound 0.01 µM): 68.7%
- viability, T/C [5]: 49.7%
- viability, T/C [6]: 46%
- viability, T/C (second compound 1 µM, first compound 0.000316 µM): 79.9%
- viability, T/C (second compound 1 µM, first compound 0.001 µM): 96.3%
- viability, T/C (second compound 1 µM, first compound 0.00316 µM): 97.7%
- viability, T/C (second compound 1 µM, first compound 0.01 µM): 65.6%
- viability, T/C [7]: 65%
- viability, T/C [8]: 45.2%
